In US11612586B2, “Indole regulation of antigen presenting cells” (THE TEXAS A&M UNIVERSITY SYSTEM, priority 2016, dated 2023):

Experiments:
NF-kB = NF-kB activity assay in DC2.4-NFkB-GLuc reporter cells; type: cell-based, murine; conditions: indole 24 hours, LPS 10 ug/ml
Th1 cells = experiment: Th1 differentiation in DC-T cell co-culture; type: cell-based, mouse
Protocol: FIGS. 19A-19C graphically illustrate that indole-conditioned DCs inhibit Th1, Th2, and Th17 differentiation. Naïve CD4+CD25-T cells from OT-II TCR transgenic mice were isolated by column purification. Naïve T cells were then co-cultured with OVA323-339 peptide-loaded BMDCs for 72 hours in the presence or absence of lineage-skewing cytokines (described in methods). BMDCs were previously treated with indole, RA, or DMF from day 3. For the last 5 hours of culture, T cells were restimulated with PMA and ionomycin in the presence of Golgiplug, followed by intracellular staining. Cytokine production was determined to assess differentiation of Th1 (FIG. 19A), Th2 (FIG. 19B), and Th17 CD4+T (FIG. 19C) cells. Mean of three independent experiments. * indicates p<0.05 for one-way ANOVA followed by Dunnett's post-test.
FIGS. 20A and 20B graphically illustrate that T cell skewing mediated by indole-conditioned DCs is AhR-independent. BMDCs were differentiated from WT or AhR-KO mice and conditioned with indole, RA, or DMF from day 3. DCs were then loaded with OVA323-339 and co-cultured with naïve CD4+CD25− T cells from OT-II transgenic mice for 72 hours. […] Subsequently, all cultures were stained and analyzed by flow cytometry for Foxp3 to identify Tregs or (B) IFNγ to identify Th1 cells. […]

TNF = TNF production in splenic macrophages ex vivo; type: cell-based, mouse; conditions: indole overnight
Protocol: Similarly, the ex vivo indole conditioning of splenocytes was repeated with tissues from AhR-deficient and wild-type mice and analyzed TNF production. […] Importantly, in this set of experiments splenocytes were stimulated with LPS, heat-killed S. typhimurium, and CpG. […] Specifically, BMDMs were generated from WT or AhR-KO mice and treated with indole (1 mM) or DMF control for 18 hours. BMDMs were then stimulated with IL-6 (10 ng/ml) for the given times and stained for phospho-Stat3, which was detected by flow cytometry.

naïve CD4+CD25− T cells = experiment: DC-T cell co-culture without cell contact (Transwell): Treg induction; type: cell-based, mouse; conditions: exogenous TGF-β added, 3 days
Erk = experiment: phospho-Erk signaling in BMDMs; type: cell-based, mouse
Protocol: The PI3K/Akt and MAPK/Erk signaling pathways regulate many cellular processes including survival, apoptosis, growth, and cytokine production. […] Specifically, BMDMs were treated with indole (1 mM) or DMF control for 18 hours, then stimulated with LPS (10 ug/ml) or CpG (5 uM) for 30 minutes. Cells were stained for phospho-Akt or phospho-Erk and analyzed by flow cytometry.
The inventors performed a series of assays where bone marrow derived macrophages (BMDMs), bone marrow derived dendritic cells (BMDCs), and splenic dendritic cells (splenic DCs), were exposed to a series of TDMMs, including indole, indole-3-acetate (I3AT), 5-hydroxyindole (5HI), and indole-3-pyruvate (I3P), as well as indole-3-carbinol (I3C; a plant derived compound) to be used for a positive control (1 mM for 24 hours). The BMDMs and BMDCs were stimulated with LPS for 4 hours and assayed at day 7 for expression of various pro-inflammatory cytokines. In a similar assay, the BMDMs and BMDCs were stimulated with LPS or CpG, respectively, for 15 minutes and assayed for pAKT and pERK signaling, which is a reflection of pro-inflammatory response.

IL-6 = IL-6 production in splenic CD11c+ DCs ex vivo; conditions: indole overnight, LPS or heat-killed S. typhimurium
TLR4 = experiment: Surface TLR4 expression on DC2.4 and BMDC; conditions: DC2.4 and BMDC 18 hours indole, BMDC indole from day 3
Salmonella Typhimurium = experiment: Colonization of mice by Salmonella exposed to indole; type: in vivo; conditions: Salmonella exposed to indole compared to solvent-treated controls

c1ccc2[nH]ccc2c1 [Indole, indole]
inhibition of NF-kB signaling (NF-kB): approximately one-third | development of Th1 lineage (Th1 cells; co-culture with DCs conditioned with indole): stark inhibition | AhR dependence of inhibition of the Th1 lineage (Th1 cells; indole-conditioned BMDCs from wild-type or AhR-deficient mice): AhR-independent | inhibition of TNF production (TNF; splenic macrophages from WT or AhR-KO mice, LPS, HK-STM or CpG 6 hours): marked inhibition | inhibition of TNF production compared to solvent controls (TNF; splenic macrophages, LPS or heat-killed S. typhimurium): 75% | Treg induction by conditioned DCs without cell contact over solvent controls (naïve CD4+CD25− T cells): did not enhance Treg skew | pERK (Erk; 1 mM TDMM 24 hours, LPS 1 ug/ml 15 minutes): ↓ | dampening of pErk signaling (Erk; indole 1 mM 18 hours, LPS (10 ug/ml) or CpG (5 uM) 30 minutes): approximately 50% | inhibition of IL-6 production (IL-6): ≥ 2 fold | surface TLR4 expression on DCs (TLR4): does not alter surface TLR4 expression | competitiveness of Salmonella in colonizing mice (Salmonella Typhimurium): less competitive
